Ends that are not written are not given here.
Assays:
MMP-2 = target: T1, MMP-2 (Homo sapiens, UniProt P08253); assay: Digestion of recognizable sequence by MMP-2, followed by RPC / RP-HPLC; type: biochemical
T1 sequence (P08253 110-660): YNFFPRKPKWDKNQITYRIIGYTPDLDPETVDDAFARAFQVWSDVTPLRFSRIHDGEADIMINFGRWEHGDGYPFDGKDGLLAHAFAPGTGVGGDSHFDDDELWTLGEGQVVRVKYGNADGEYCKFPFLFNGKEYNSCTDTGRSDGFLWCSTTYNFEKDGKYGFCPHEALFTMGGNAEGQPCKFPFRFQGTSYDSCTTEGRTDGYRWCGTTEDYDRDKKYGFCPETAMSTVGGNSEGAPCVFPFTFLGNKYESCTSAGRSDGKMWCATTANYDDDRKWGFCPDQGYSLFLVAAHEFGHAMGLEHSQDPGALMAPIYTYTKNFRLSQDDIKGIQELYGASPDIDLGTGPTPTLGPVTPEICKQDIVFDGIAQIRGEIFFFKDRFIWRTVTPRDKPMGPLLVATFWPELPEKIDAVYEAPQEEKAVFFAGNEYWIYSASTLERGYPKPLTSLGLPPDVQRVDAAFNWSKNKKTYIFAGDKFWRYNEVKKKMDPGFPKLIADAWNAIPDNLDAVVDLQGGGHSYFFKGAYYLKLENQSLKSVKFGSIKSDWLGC
Experimental: In the experiment of employing MMP-2 to cut/digest recognizable sequence, after individually adding tryptophan (abbreviated symbol as “W”) at the C-terminus and the N-terminus of the recognizable sequence, the digestion of the recognizable sequence by MMP-2 can be followed by the character absorption wave length at 280 nm.
FIG. 4A to FIG. 4C respectively presents the reversed 1phase chromatography (RPC) analysis of 100 µM P1, P2, and P4 in Table 1 digested by 1 g/mL MMP-2. The gradient elution is 0-100% ACN, 50 min. […] Another recognizable sequence P4 with the same length as P3 and different amino acid fragments is designed.
The ILPW fragment from P4 digestion and the first four amino acid fragment of IL-R57F89 are the same. There are two MMP-2 cut-able sequences, GPLSI-P17 and GPLGI-P17, designed with the sequence individually as GPLS-ILPWRWRFFPWRR (SEQ ID NO: 11) and GPLG-ILPWRWRFFPWRR (SEQ ID NO: 10). The RP-HPLC analysis of GPLSI-P17 and GPLGI-P17 digested by MMP-2 are shown as FIG. 5A and FIG. 5B. It should be noticed that we ensure the peak of IL-R57F89 before the digestion of GPLSI-P17 and GPLGI-P17. […] Therefore, GPLSI-P17 and GPLGI-P17 can be employed as the recognizable sequence of this application.
Including providing protection to recognizable sequence-CPP, proper PEG length will not impact the anchoring of the target cell to the recognizable sequence. Therefore, we try to finger out the effect of the PEG length to the following anchoring. PEG5K-GPLSI-P17 and PEG5K-GPLGI-P17 are individually dissolved in pH 7.4 HEPES buffer. MMP-2 is added into the above solutions and the final concentration is about 1 g/mL. The solutions are independently reacted at 37° C. for 24 hours. The reaction results are analyzed by RPC and shown as FIG. 8A and FIG. 8B.

HepG2 cells [1] = assay: Cell viability of HepG2 cells incubated with peptide, DOX or a mixture for 1 hour and 6 hours; type: cell-based; conditions: 25 µM peptide, 25 µM DOX or mixed solution of both; incubating for 1 hour and 6 hours; FIG. 1A
Experimental: In this example, HepG2 cells are individually incubated in 25 µM peptide solution, 25 µM DOX, and a mixed solution of 25 µM DOX and 25 µM peptide. And the cell viability of the mentioned HepG2 cells is followed after incubating for 1 hour and 6 hours.

trypsin = assay: Protease stability test: trypsin digestion followed by RPC-UV280; type: in vitro ADME
Excerpt: It can be expected that drug carrier in vivo circulation will face to many bio-enzymes, wherein those bio-enzymes will cut the drug carrier. Before designing proper protection to those bio-enzymes, we hope to finger out the cutting result of the recognizable sequence-CPP (cell-penetrating peptide) by bio-enzymes. In this example, trypsin is employed as the bio-enzyme. Trypsin is a protease with selectivity, especially for cutting the carboxyl side of arginine (R) or lysine (K) of protein or peptide. In this example, when CPP is IL-R57F89, there are four arginine fragments in CPP being able to be cut by trypsin. Those four arginine fragments are R5, R7, R12, and R13.
FIG. 6A and FIG. 6B are respectively the RPC-UV280 spectra of IL-R57F89 and GPLSI-P17 digested by 0.1 g/mL trypsin. The gradient elution is 20-70% ACN, 5-30 min. In the spectra, there are sampling analysis results of 5, 10, 20, 30, 60, 120, and 240 min from top to bottom. […] According to this example, it can be noticed that it has to design a proper structure for keeping the recognizable sequence-CPP of drug carrier from cut by bio-enzyme(s) before the drug carrier achieving the target cell.
Subsequently, it is important to find out proper PEG length so that the PEG can provide protection to the recognizable sequence-CPP and the PEG will not impact the anchoring of the target cell to the recognizable sequence. FIG. 7B presents the trypsin digestion results of IL-R57F89, GPLSI-P17, PEG1K-GPLSI-P17, PEG2K-GPLSI-P17, PEG5K-GPLSI-P17, and PEG5K-GPLGI-P17. […] PEG1K-GPLSI-P17 is digested about 80% after 2 hours. After digesting for 4 hours, PEG2K-GPLSI-P17 and PEGSK-GPLSI-P17 are individually digested about 50% and 45%. It can be ensured that the PEG with proper length can efficiently keep the recognizable sequence-CPP from digested by bio-enzyme. And, when adjusting the PEG length with the length of the recognizable sequence-CPP, the protection of the PEG to the recognizable sequence-CPP can be optimized. For example, to those general recognizable sequence-CPP now, the proper length of PEG is about 1000-25000 Da.

HepG2 cells [2] = assay: DOX fluorescence intensity in HepG2 cytoplasm (intracellular translocation); type: cell-based; conditions: incubating time from 1 hour to 6 hours; FIG. 1B
Experimental: Besides, in order to ensure whether the cell-penetrating peptide is helpful to the translocation of DOX, after incubating for 1 to 6 hours, the DOX fluorescence intensity of in HepG2 tumor cell cytoplasm is measured and shown as FIG. 1B.
(§1) In this example, HepG2 cells are individually incubated in DOX, DOX and IL-R57F89 mixed solution, and IL-R57F89-DOX for 1 hour, and measured the fluorescence intensity as FIG. 3.

HepG2 cell = assay: Cytotoxicity test on HepG2 cells, 24 hours; type: cell-based; conditions: acted on HepG2 cell for 24 hour; FIG. 10
Experimental: as §1
DOX and PEG5K-GPLGI-P17-DOX are processed cytotoxicity test.

[3] = 100 µM peptide, 1 g/mL MMP-2, after digesting for 2 hours, FIG. 4A, 4B
[4] = 0.1 g/mL trypsin, after 2 hours, FIG. 6A, 6B
[5] = after 24 hours, FIG. 4C, 5A, 5B

For P2: MMP-2 cut-able sequence WGPLGIAGW, the “digestion by MMP-2” value (MMP-2; [3]) was “totally digested”.
For ILPWRWRFFPWRR [IL-R57F89], the “cytotoxicity to HepG2 cell (cell viability)” value (“cytotoxicity to HepG2 cell” for short) (HepG2 cells [1]) was “do not present obvious cytotoxicity”, the digestion by trypsin (trypsin; [4]) was “almost digested completely” and the digestion by trypsin (trypsin; after about 1 hour, FIG. 7B) was “almost digested completely”.
In the case of “GPLGI-P17: recognizable sequence-CPP GPLG-ILPWRWRFFPWRR (SEQ ID NO: 10) (GPLGILPWRWRFFPWRR; the sequence is synthesized)”, the “digestion by MMP-2” value (MMP-2; [5]) is reported as “totally digested”.
In the case of P4: MMP-2 cut-able sequence WGPLGILPW, the “digestion by MMP-2” value (MMP-2; [5]) is reported as “totally digested”.
GPLSILPWRWRFFPWRR [GPLSI-P17] was tested, and the digestion by trypsin (trypsin; [4]) was “almost digested completely” and the digestion by trypsin (trypsin; after about 1 hour, FIG. 7B) was “almost digested completely”.
In the case of P1: MMP-2 cut-able sequence WGPLGIAGQW, the “digestion by MMP-2” value (MMP-2; [3]) is reported as “still can be digested by MMP-2”.
For CC[C@H](C)[C@H](N)C(=O)N[C@@H](CC(C)C)C(=O)N1CCC[C@H]1C(=O)N[C@@H](Cc1c[nH]c2ccccc12)C(=O)N[C@@H](CCCCN)C(=O)N[C@@H](Cc1c[nH]c2ccccc12)C(=O)N1CCC[C@H]1C(=O)N[C@@H](Cc1c[nH]c2ccccc12)C(=O)N[C@@H](Cc1c[nH]c2ccccc12)C(=O)N1CCC[C@H]1C(=O)N[C@@H](Cc1c[nH]c2ccccc12)C(=O)N[C@@H](CCCNC(=N)N)C(=O)N[C@@H](CCCNC(=N)N)C(=O)O [IL, Indolicidin], the “cytotoxicity to HepG2 cell” value (HepG2 cells [1]) was “do not present obvious cytotoxicity”.
COc1cccc2c1C(=O)c1c(O)c3c(c(O)c1C2=O)C[C@@](O)(C(=O)CO)C[C@@H]3O[C@H]1C[C@H](N)[C@H](O)[C@H](C)O1 [DOX, doxorubicin] was tested, and the “cytotoxicity to HepG2 cell” value (HepG2 cells [1]) was “do not present obvious cytotoxicity”, the “DOX fluorescence intensity in HepG2 tumor cell cytoplasm, change with incubating time” value (HepG2 cells [2]) was “increased” and the “cell viability of HepG2” value (HepG2 cell) was “efficiently decrease the cell viability”.
